Measurements: US9090593B2, “Bicyclic compounds as Pim inhibitors” (AMGEN INC., priority 2010, dated 2015)
Counter-ions that a name gives are not always drawn. Like-named read-outs stand apart in the source and are kept apart here.

Columns and labels:
[1] = biological target: T1, full length recombinant Pim-1 protein (Homo sapiens, UniProt P11309); experiment: Pim-1 enzyme assay (HTRF, phosphorylation of biotinylated-BAD (S112) peptide); type: biochemical; settings: read-out: Pim_1_IC50
T1 construct: by full length recombinant Pim-1, Pim-2, or Pim-3 protein; hexahistidine tag followed by a thrombin cleavage site (N); made in house; host or cells: Sf9 (baculovirus) or E. coli (pET28)
T1 sequence (P11309 whole entry): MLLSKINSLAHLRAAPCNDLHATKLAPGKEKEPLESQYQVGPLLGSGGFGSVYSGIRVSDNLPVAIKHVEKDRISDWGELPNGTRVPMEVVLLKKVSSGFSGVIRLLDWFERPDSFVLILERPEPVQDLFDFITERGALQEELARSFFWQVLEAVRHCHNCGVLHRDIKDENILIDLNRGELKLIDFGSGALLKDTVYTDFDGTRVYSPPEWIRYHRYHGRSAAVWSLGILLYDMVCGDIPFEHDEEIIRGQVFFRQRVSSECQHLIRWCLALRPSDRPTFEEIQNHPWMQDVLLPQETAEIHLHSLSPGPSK
Description: (§1) These cDNAs were used as templates in PCR reactions to produce full-length DNA clones of the PIMs. […] PCR products were digested with […] and EcoRI for Pim-1 and BamHI and EcoRI for Pim-2 and ligated into a modified baculovirus transfer vector (pFastBac1) cleaved with BamHI and EcoRI. For bacterial expression, the same cleaved PCR products encoding Pim-1 or Pim-2 were ligated into a modified E. coli expression vector pET28(a) cleaved with BamHI and EcoRI Amino-terminal hexahistidine tags followed by a thrombin cleavage site were previously added to the vectors using standard methods of molecular biology. Recombinant baculoviruses expressing Pim-1 or Pim-2 were made using standard methods (Fastbac manual, Invitrogen, Carlsbad, Calif.). Infection of Sf9 cells was done at an m.o.i. of greater than 5 for 24-48 h. Cells were harvested by centrifugation and frozen at −80 C. For E. coli expression, cells carrying pET28-His6-Th-Pim-1 or pET28-His6-Th-Pim-2 were picked from a single colony and grown o/n in LB media. The o/n culture was used to inoculate a 2 liter flask with 500 mL media. This was grown o/n and used to inoculate 15-20 liters of Terrific Broth in a New Brunswick Scientific fermentor. The E. coli were grown at 37° C. to and OD600>1.6. The temperature was dropped to 18° C. and o/n expression was induced with 0.5 mM IPTG. Cells were harvested by centrifugation and frozen at −80° C.
(§2) This step was repeated 3× and the resin was transferred to a 2.5 cm glass column. Ten column volumes of wash buffer (0.05 M HEPES, pH 8.0, 0.1 M NaCl, 0.01 M 2-mercaptoethanol, 10% (w/v) glycerol) were applied to the resin followed by 10 column volumes of elution buffer (0.05 M HEPES, pH 8.0, 0.25 M NaCl, 0.01 M 2-mercaptoethanol, 10% (w/v) glycerol, 0.1 M imidazole). Fractions were analyzed by SDS-PAGE and those containing the protein of interest were pooled and concentrated. The concentrated protein was applied to an Amersham Superdex 75 (XK 26/60) column equilibrated in 0.025 M Tris-HCl, pH 7.5, 0.1 M NaCl, 0.01 M 2-mercaptoethanol, 10% (w/v) glycerol. […] Fractions containing the monomeric protein of interest were pooled, concentrated to ˜2 mg/mL, and stored at −80° C.
(§3) The phosphorylation of biotinylated-BAD (S112) peptide by full length recombinant Pim-1, Pim-2, or Pim-3 protein was detected with streptavidin:Allophycocyanin (APC) conjugate and a europium (Eu) labeled antibody directed against phosphorylated-BAD (S112). […] The fluorescence is directly proportional to the amount of phosphorylated BAD peptide present in the reaction.
(§4) A reference compound was included on each assay plate in order to validate that plate; on one plate of every assay run, two additional reference compounds were included.
(§5) The final buffer conditions were as follows: 60 mM Hepes, pH 7.0, 0.05% BSA, 2 mM DTT. […] The reaction was stopped by the addition of 3 mM EDTA, and fluorescence was measured by an HTRF® Rubystar microplate reader. For each plate, percent of control (POC) values were calculated for each well. Values for the IC50 IP were estimated using a standard 4-parameter logistic model.

[2] = biological target: T2, full length recombinant Pim-2 protein (Homo sapiens, UniProt Q9P1W9); experiment: Pim-2 enzyme assay (HTRF, phosphorylation of biotinylated-BAD (S112) peptide); type: biochemical
T2 construct: by full length recombinant Pim-1, Pim-2, or Pim-3 protein; hexahistidine tag followed by a thrombin cleavage site (N); made in house; host or cells: Sf9 (baculovirus) or E. coli (pET28)
T2 sequence (Q9P1W9 whole entry): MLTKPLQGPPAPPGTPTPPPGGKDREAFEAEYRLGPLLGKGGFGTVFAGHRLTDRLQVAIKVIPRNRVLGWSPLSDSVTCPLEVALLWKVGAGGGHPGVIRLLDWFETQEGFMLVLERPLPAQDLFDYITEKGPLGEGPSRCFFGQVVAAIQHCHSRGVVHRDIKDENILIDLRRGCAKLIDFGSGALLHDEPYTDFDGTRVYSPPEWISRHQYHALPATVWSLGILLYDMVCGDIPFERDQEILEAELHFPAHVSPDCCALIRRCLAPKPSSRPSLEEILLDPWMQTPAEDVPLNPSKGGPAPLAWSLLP
Description: as §1, §2, §3, §4, §5

| Structure (SMILES) | IC50 [1] [nM] | IC50 ([2]; read-out: Pim2_IC50) [µM] | IC50 ([2]; Pim2_IC50 (uM)) [µM] |
| --- | --- | --- | --- |
| CC1CCCN(c2cnc(-c3ccc4[nH]cc(-c5cncc(O[C@@H]6CCCNC6)n5)c4c3)cn2)C1 (mixture of isomers) [Example 306] | 23 | 0.093 | – |
| Fc1cccc(F)c1-c1ccc2[nH]nc(-c3cncc(CC4CCCNC4)n3)c2c1 (single isomer, unassigned) [Example 274, 5-(2,6-difluorophenyl)-3-(6-(3-piperidinylmethyl)-2-pyrazinyl)-1H-indazole] | 20 | 0.09 | – |
| Fc1cccc(F)c1-c1ccc2[nH]nc(-c3cncc(OC4CCNCC45CC5)n3)c2c1 (single isomer, unassigned) [Example 429] | 30 | 0.076 | – |
| Fc1cccc(F)c1-c1ccc2[nH]nc(-c3cncc(Oc4cccnc4)n3)c2c1 [Example 246, 5-(2,6-difluorophenyl)-3-(6-(3-pyridinyloxy)-2-pyrazinyl)-1H-indazole] | 551 | 0.798 | – |
| c1ccc(Nc2ccc3[nH]nc(-c4cncc(O[C@H]5CNCCC56CC6)n4)c3c2)cc1 [Example 251, 3-(6-((4R)-6-azaspiro[25]oct-4-yloxy)-2-pyrazinyl)-N-phenyl-1H-indazol-5-amine bis(2,2,2-trifluoroacetate)] | 4 | 0.039 | – |
| N#Cc1ccc2[nH]nc(-c3cncc(O[C@H]4CNCCC45CC5)n3)c2c1 [Example 254, 3-(6-((4R)-6-azaspiro[2.5]oct-4-yloxy)-2-pyrazinyl)-1H-indazole-5-carbonitrile] | 364 | – | > 1 |
| C=C(Cl)c1ccccc1-c1ccc2[nH]nc(-c3cncc(O[C@H]4CNCCC45CC5)n3)c2c1 [Example 267, 3-(6-((4R)-6-azaspiro[25]oct-4-yloxy)-2-pyrazinyl)-5-(2-(1-chloroethenyl)phenyl)-1H-indazole bis(2,2,2-trifluoroacetate)] | 30 | 0.044 | – |
| CC(=O)c1ccc2[nH]nc(-c3cncc(O[C@H]4CNCCC45CC5)n3)c2c1 [Example 268, 1-(3-(6-((4R)-6-azaspiro[25]oct-4-yloxy)-2-pyrazinyl)-1H-indazol-5-yl)ethanone 2,2,2-trifluoroacetate] | 105 | 0.146 | – |
| OCCc1ccc2[nH]nc(-c3cncc(O[C@H]4CNCCC45CC5)n3)c2c1 [Example 270, 2-(3-(6-((4R)-6-azaspiro[25]oct-4-yloxy)-2-pyrazinyl)-1H-indazol-5-yl)ethanol hydrochloride] | 46 | 0.166 | – |
| CC(CO)c1ccc2c(c1)c(-c1cncc(O[C@H]3CNCCC34CC4)n1)nn2C (stereo partly drawn) [Example 271, 2-(3-(6-((4R)-6-azaspiro[25]oct-4-yloxy)-2-pyrazinyl)-1-methyl-1H-indazol-5-yl)-1-propanol] | 159 | 0.2 | – |
| c1cc2[nH]nc(-c3cncc(O[C@H]4CNCCC45CC5)n3)c2cc1-c1cncc(C2CC2)n1 [Example 275, 3-(6-((4R)-6-azaspiro[2.5]oct-4-yloxy)-2-pyrazinyl)-5-(6-cyclopropyl-2-pyrazinyl)-1H-indazole] | 9 | 0.099 | – |
| COc1cc(-c2c[nH]c3ccc(-c4c(F)cccc4F)cc23)nc(N[C@@H]2CCCNC2)n1 [Example 278, (R)-4-(5-(2,6-difluorophenyl)-1H-indol-3-yl)-6-methoxy-N-(piperidin-3-yl)pyrimidin-2-amine] | 565 | 0.7 | – |
| CC(C)Oc1cncc(-c2ccc3[nH]cc(-c4nn(C(C)C)c(=O)o4)c3c2)n1 [Example 281, 5-(5-(6-isopropoxypyrazin-2-yl)-1H-indol-3-yl)-3-isopropyl-1,3,4-oxadiazol-2(3H)-one] | 70 | 0.597 | – |
| CC(C)Oc1cncc(-c2ccc3[nH]cc(-c4nnc(N5CCC[C@@H](N)C5)o4)c3c2)n1 [Example 525] | 70 | – | – |

More lines, in order of falling IC50 [1], values ahead:

| IC50 [1] [nM] | IC50 ([2]; read-out: Pim2_IC50) [µM] | Structure (SMILES) | IC50 ([2]; Pim2_IC50 (uM)) [µM] |
| --- | --- | --- | --- |
| 344 | 0.929 | COc1cc(-c2c[nH]c3ccc(-c4c(F)cccc4F)cc23)nc(N2CCC(N)CC2)n1 [Example 276, 1-(4-(5-(2,6-difluorophenyl)-1H-indol-3-yl)-6-methoxypyrimidin-2-yl)piperidin-4-amine] | – |
| 159 | 0.407 | Fc1cccc(F)c1-c1ccc2[nH]cc(-c3cncc(OC4CNCCC45CC5)n3)c2c1 (single isomer, unassigned) [Example 439] | – |
| 158 | 0.733 | CC1CCCCN1c1nc(-c2ccc3[nH]cc(-c4cncc(O[C@@H]5CCCNC5)n4)c3c2)cs1 (mixture of isomers) [Example 303] | – |
| 105 | 0.174 | Fc1cccc(F)c1-c1ccc2[nH]nc(-c3cncc(OC4C=CCNC4)n3)c2c1 (single isomer, unassigned) [Example 426] | – |
| 70 | 0.287 | Fc1cccc(F)c1-c1ccc2[nH]nc(-c3cncc(CC4CCCNC4)n3)c2c1 (single isomer, unassigned) [Example 273, 5-(2,6-difluorophenyl)-3-(6-(3-piperidinylmethyl)-2-pyrazinyl)-1H-indazole] | – |
| 70 | 0.196 | CC1CNCC(Oc2cncc(-c3n[nH]c4ccc(-c5c(F)cccc5F)cc34)n2)C1 (single isomer, unassigned) [Example 468] | – |
| 70 | 0.121 | Cn1nccc1-c1ccc2[nH]nc(-c3cncc(O[C@H]4CNCCC45CC5)n3)c2c1 [Example 252, 3-(6-((4R)-6-azaspiro[2.5]oct-4-yloxy)-2-pyrazinyl)-5-(1-methyl-1H-pyrazol-5-yl)-1H-indazole] | – |
| 69 | – | c1cnc(N2CCOCC2)c(-c2ccc3[nH]cc(-c4cncc(O[C@@H]5CCCNC5)n4)c3c2)c1 [Example 338] | – |
| 46 | 0.309 | O[C@@H]1CN(c2cncc(-c3n[nH]c4ccc(-c5c(F)cccc5F)cc34)n2)CC[C@@H]1O (single isomer, unassigned) [Example 250, cis-1-(6-(5-(2,6-difluorophenyl)-1H-indazol-3-yl)-2-pyrazinyl)-3,4-piperidinediol] | – |
| 32 | 0.269 | O[C@@H]1CN(c2cncc(-c3n[nH]c4ccc(-c5c(F)cccc5F)cc34)n2)CC[C@@H]1O (single isomer, unassigned) [Example 249, cis-1-(6-(5-(2,6-difluorophenyl)-1H-indazol-3-yl)-2-pyrazinyl)-3,4-piperidinediol] | – |
| 30 | 0.203 | CC(C)C1CCNCC1Oc1cncc(-c2n[nH]c3ccc(-c4c(F)cccc4F)cc23)n1 (single isomer, unassigned) [Example 394] | – |
| 28 | 0.076 | Fc1cccc(F)c1-c1ccc2[nH]nc(-c3cncc(SC4CCCNC4)n3)c2c1 (single isomer, unassigned) [Example 415] | – |
| 22 | 0.161 | CC(C)Oc1cncc(-c2ccc3[nH]cc(-c4nnc(N5CCC(N)CC5)o4)c3c2)n1 [Example 280, 1-(5-(5-(6-isopropoxypyrazin-2-yl)-1H-indol-3-yl)-1,3,4-oxadiazol-2-yl)piperidin-4-amine] | – |
| 13 | 0.044 | C#Cc1ccccc1-c1ccc2[nH]nc(-c3cncc(O[C@H]4CNCCC45CC5)n3)c2c1 [Example 266, 3-(6-((4R)-6-azaspiro[25]oct-4-yloxy)-2-pyrazinyl)-5-(2-ethynylphenyl)-1H-indazole bis(2,2,2-trifluoroacetate)] | – |
